Data as given in paper PMC11904948, “Peptide‐Drug Conjugate for Therapeutic Reprogramming of Tumor‐Associated Macrophages in Breast Cancer” (Advanced Science, 2025).

Test system: YAP
Experiment: YAP immunofluorescence in BMDM
Assay type: cell-based, mouse
Conditions: day 5 BMDM, 10 µM 4 h, washed, confocal microscopy 3 h later
From the text: We speculated that the observed in vivo effect of MACTIDE‐V could be mediated by the modulation of macrophage phenotype elicited by Verteporfin, a drug that inhibits the co‐transcription factor Yes Associated Protein (YAP), and prevents the anti‐inflammatory shift in macrophages.^[ [26] ^] We therefore analyzed the effect of MACTIDE‐V on YAP localization and phenotypic changes in mouse bone marrow‐derived macrophages (BMDM) in vitro. We first treated BMDM with MACTIDE‐V, MACTIDE, or CtrlPep‐V and evaluated changes in YAP localization 3 h later using confocal microscopy. […] These observations are consistent with the reported effect of Verteporfin sequestering YAP in the cytoplasm.^[ [27], [28] ^]
Figure 6 MACTIDE‐V promotes a YAP‐ mediated anti‐ tumoral switch in bone marrow‐derived macrophages. Day 5 BMDM were incubated for 4 h with 10 µM conjugates, washed, and followed‐up in media. A) YAP Immunofluorescence (shown in red) was analyzed 3 h after treatment and B) phagocytosis of fluorescent E. coli particles at 48 h follow‐up. C) Flow cytometry on BMDM 48 h after treatment. Left panel, GeoMean of MHC II, CD206, CD80, and PD‐L1 in Balb/c BMDM. Median ± interquartile range. […] D) Heatmap of the mRNA expression of genes involved in the functional activation of BMDM, YAP signaling, and adhesion, measured by real‐time PCR 48 h after treatment in BALB/c BMDM. n = 3 independent experiments. […]

| Substance | YAP localization |
| --- | --- |
| Vert‐Ahx‐AKPCGS‐OH [CtrlPep‐V, reference compound] | uniformly spread throughout the cell |
| Vert‐Ahx‐G(CTKSIPPIC)SPGAK‐OH (disulfide) [MACTIDE‐V] | excluded YAP from the nucleus |
